Measurements taken from ChEMBL document CHEMBL5518232, “Discovery of New Tricyclic Oxime Sampangine Derivatives as Potent Antifungal Agents for the Treatment of Cryptococcosis and Candidiasis” (J Med Chem, 2024).
Converted amounts (≈) assume the structure as drawn.

What was measured:
Assay type in all cases: functional
Candida albicans [1] = assay: Antifungal activity against Candida albicans SC5314 assessed as reduction in fungal growth incubated for 48 hrs by liquid based microdilution method
Candida albicans [2] = assay: Synergistic antifungal activity against Candida albicans 0304103 assessed as inhibition of fungal growth incubated for 48 hrs in presence of fluconazole by checkerboard microdilution assay
Nakaseomyces glabratus = assay: Antifungal activity against Candida glabrata 9073 assessed as reduction in fungal growth incubated for 48 hrs by liquid based microdilution method
Cryptococcus neoformans [3] = assay: Antifungal activity against Cryptococcus neoformans H99 assessed as reduction in fungal growth incubated for 72 hrs by liquid based microdilution method
Candida tropicalis = assay: Antifungal activity against Candida tropicalis 10186 assessed as reduction in fungal growth incubated for 48 hrs by liquid based microdilution method
Candida albicans [4] = assay: Antifungal activity against Candida albicans 0304103 assessed as reduction in fungal growth incubated for 48 hrs by liquid based microdilution method
Candida albicans [5] = assay: Antagonistic antifungal activity against Candida albicans 0304103 assessed as fractional inhibitory concentration index by measuring ratio of MIC80 for compound and synergetic / MIC80 for compound alone + MIC80 for fluconazole synergetic / MIC80 for fluconazole alone
Candida albicans [6] = assay: Synergistic antifungal activity against Candida albicans 0304103 assessed as fractional inhibitory concentration index by measuring ratio of MIC80 for compound and synergetic / MIC80 for compound alone + MIC80 for fluconazole synergetic / MIC80 for fluconazole alone
[7] = Antifungal activity against Cryptococcus gattii VGI ATCC 14116 assessed as reduction in fungal growth incubated for 72 hrs by liquid based microdilution method
Cryptococcus neoformans [8] = assay: Antifungal activity against Cryptococcus neoformans ATCC 34877 assessed as reduction in fungal growth incubated for 72 hrs by liquid based microdilution method
Cryptococcus neoformans [9] = assay: Antifungal activity against Cryptococcus neoformans assessed as reduction in fungal growth incubated for 24 hrs by broth microdilution method
Candida albicans [10] = assay: Antifungal activity against Candida albicans assessed as reduction in fungal growth incubated for 24 hrs by broth microdilution method

MIC80 (Candida albicans [1]) [µg/mL] | MIC80 (Candida albicans [2]) [µg/mL] | MIC80 (Nakaseomyces glabratus) [µg/mL] | MIC80 (Cryptococcus neoformans [3]) [µg/mL] | MIC80 (Candida tropicalis) [µg/mL] | MIC80 (Candida albicans [4]) [µg/mL] | MIC80 [7] [µg/mL] | MIC80 (Cryptococcus neoformans [8]) [µg/mL] | MIC80 (Cryptococcus neoformans [9]) [µg/mL] | MIC80 (Candida albicans [10]) [µg/mL] | Compound | fractional inhibitory concentration index (FICI) (Candida albicans [5]) | fractional inhibitory concentration index (FICI) (Candida albicans [6])
> 64 | 2 | > 64 | 0.25 (≈ 1.07 µM) | > 64 | > 64 | 4 (≈ 17.1 µM) | 8 (≈ 34.2 µM) | – | – | Cc1noc2c1C(=O)c1sccc1/C2=N/O | – | 0.094
> 64 | 2 | > 64 | 32 (≈ 132 µM) | > 64 | > 64 | – | – | – | – | CO/N=C1/c2ccccc2C(=O)c2c(C)noc21 | – | 0.047
> 64 | 2 | > 64 | > 64 | > 64 | > 64 | – | – | – | – | CCO/N=C1/c2ccccc2C(=O)c2c(C)noc21 | – | 0.039
> 64 | 2 | > 64 | 0.13 (≈ 0.496 µM) | > 64 | > 64 | 4 (≈ 15.3 µM) | 0.13 (≈ 0.496 µM) | – | – | CCc1noc2c1C(=O)c1sccc1/C2=N/OC | – | 0.047

Continued, compound first:

Compound | MIC80 (Candida albicans [1]) [µg/mL] | MIC80 (Candida albicans [2]) [µg/mL] | MIC80 (Nakaseomyces glabratus) [µg/mL] | MIC80 (Cryptococcus neoformans [3]) [µg/mL] | MIC80 (Candida tropicalis) [µg/mL] | MIC80 (Candida albicans [4]) [µg/mL] | MIC80 [7] [µg/mL] | MIC80 (Cryptococcus neoformans [8]) [µg/mL] | MIC80 (Cryptococcus neoformans [9]) [µg/mL] | MIC80 (Candida albicans [10]) [µg/mL] | fractional inhibitory concentration index (FICI) (Candida albicans [5]) | fractional inhibitory concentration index (FICI) (Candida albicans [6])
CO/N=C1/c2ccsc2/C(=N\OC)c2ccsc21 | > 64 | > 64 | > 64 | 32 (≈ 115 µM) | > 64 | > 64 | – | – | – | – | >2 | –
Cc1ccnc2c1C(=O)c1sc([N+](=O)[O-])cc1C2=O | – | – | – | – | – | – | – | – | 0.25 (≈ 0.912 µM) | 0.5 (≈ 1.82 µM) | – | –
CO/N=C1/c2ccsc2C(=O)c2ccsc21 | > 64 | 2 | > 64 | 64 (≈ 257 µM) | > 64 | > 64 | – | – | – | – | – | 0.047
